This experiment relates to T1, tyrosinase (mushroom tyrosinase, EC 1.14.18.1).
T1 construct: gene PPO3; commercial native enzyme from mushroom (Sigma)
The experiment is described as follows: fluorescence of released resorufin (ex […] nm, em […] nm), Lineweaver-Burk plot. Format: biochemical. The note with it: tyrosinase 3 U/mL alone, no esterase; 10-50 μM compound 2; PBS pH 7.4, 37 °C.

Structures are written as SMILES.

Broadly, the Km is the substrate concentration at which the rate is half of its maximum. `CC(=O)Oc1cccc(COc2ccc3nc4ccc(=O)cc-4oc3c2)c1` [compound 2, 3-(((3-oxo-3H-phenoxazin-7-yl)oxy)methyl)phenyl acetate]: the Km amounted to 44.3 µM.

(Values after paper PMC10763817, “Development of dual enzyme responsive molecular AND logic gate” (Turkish Journal of Chemistry, 2021).)
